From patent publication US20260166122A1, “USE OF MICROPEPTIDE MIAC” (NANJING ANJI BIOTECHNOLOGY CO., LTD, priority 2023, published 2026)
Like-named read-outs stand apart in the source and are kept apart here. Ends that are not written are not given here.

Columns and labels:
[1] = tested on: human esophageal carcinoma cells Eca-109; assay type: cell-based; details: 72 h
[2] = tested on: human esophageal carcinoma cells CaES-17; assay type: cell-based; details: 72 h
[3] = tested on: human gastric carcinoma cells BGC-803; assay type: cell-based; details: 72 h
[4] = tested on: human gastric carcinoma cells BGC-823; assay type: cell-based; details: 72 h
[5] = tested on: human breast cancer cells MX-1; assay type: cell-based; details: 72 h
[6] = tested on: human non-small cell lung cancer cells NCI-H1299; assay type: cell-based; details: 72 h
[7] = tested on: human lung giant cell carcinoma cells 95-D; assay type: cell-based; details: 72 h
[8] = tested on: osteosarcoma MG-63 cells; experiment: transwell migration inhibition, MG-63; assay type: cell-based, human; details: 48 h
Method: (§1) Human prostate cancer, cervical cancer, osteosarcoma, ovarian cancer, melanoma, and hepatocellular carcinoma cells were inoculated into transwell chambers, with 100 μL per well; for an administration group, 100 μL of a micropeptide MIAC was added to each of the chambers at a different dose; and no medicament was added to a blank group. Then, 0.6 mL of a complete medium comprising 10% FBS was added to transwell lower chambers to stimulate cell migration, followed by incubation at 37° C. with 5% CO2 for 48 h. The culture medium in the wells was discarded, and the cells were fixed with methanol at room temperature for 30 min, stained with 0.1% crystal violet at room temperature for 10 min, and rinsed thoroughly with clear water; the unmigrated cells in the upper layer were wiped off with a cotton swab; and the migrated cells were observed under a microscope, and four visual fields were selected for photography and counting. The migration inhibition rate (MI) was calculated using the following formula: […]
(§2) where Ntest represents the number of migrated cells in the administration group, and Ncontrol represents the number of migrated cells in the blank control group.

[9] = tested on: ovarian cancer SKOV3 cells; experiment: transwell migration inhibition, SKOV3; assay type: cell-based, human; details: 48 h
Method: as §1, §2

[10] = tested on: hepatocellular carcinoma Hep3B cells; experiment: transwell migration inhibition, Hep3B; assay type: cell-based, human; details: 48 h
Method: as §1, §2

[11] = tested on: human hepatocellular carcinoma Hep3B cells; experiment: subcutaneously transplanted Hep3B tumor in nude mice; assay type: in vivo, BALB/c nude mouse; details: Hep3B subcutaneous transplanted tumor, BALB/c nude mice, 5, 10, 15, 20 mg/kg; dose-dependent
Method: Human hepatocellular carcinoma Hep3B cells were cultured in large quantities and digested with a 0.25% trypsin solution; and the cell suspension after digestion termination was centrifuged at 1000 rpm for 5 minutes, and the cells were resuspended in a serum-free MEM medium and then counted to adjust the cell concentration to 5×10^7 cells/mL. Each BALB/c nude mouse (4-6 weeks old, female, weighing 14-16 g, adaptively housed in an SPF animal breeding room for 1 week) was inoculated with 100 μL of the cell suspension in the left axilla, with an inoculated cell amount of 5×10^6 cells. After inoculation, the tumor growth at the inoculation site of nude mice was closely observed. On the 7th day after inoculation, white nodules appeared at the inoculation site, which could be moved subcutaneously upon touch. As the tumor tissue grew, a hard tumor mass gradually formed at the inoculation site. […] The volume of the transplanted tumor was measured and recorded every two days, and the formula for calculating the tumor volume (TV) was: tumor volume=0.5×a×b^2, where a is the length (mm) of the transplanted tumor and b is the width (mm) of the transplanted tumor.

MERAGVPGFSPRRSSVEAKMQSTSCSVRKSSTVTAWPAVVLLLSWGQRRGG [MIAC, micropeptide inhibiting actin cytoskeleton]
OD ([1]; Eca-109, 50 μM): 1.072 ± 0.037 | OD ([1]; Eca-109, 100 μM): 0.656 ± 0.045 | OD ([1]; Eca-109, 200 μM): 0.394 ± 0.039 | OD ([2]; CaES-17, 50 μM): 1.168 ± 0.044 | OD ([2]; CaES-17, 100 μM): 0.672 ± 0.051 | OD ([2]; CaES-17, 200 μM): 0.466 ± 0.022 | OD ([3]; BGC-803, 50 μM): 1.379 ± 0.025 | OD ([3]; BGC-803, 100 μM): 0.960 ± 0.059 | OD ([3]; BGC-803, 200 μM): 0.715 ± 0.015 | OD ([4]; BGC-823, 50 μM): 0.950 ± 0.045 | OD ([4]; BGC-823, 100 μM): 0.556 ± 0.029 | OD ([4]; BGC-823, 200 μM): 0.327 ± 0.025 | OD ([5]; MX-1, 50 μM): 1.020 ± 0.028 | OD ([5]; MX-1, 100 μM): 0.808 ± 0.102 | OD ([5]; MX-1, 200 μM): 0.630 ± 0.051 | OD ([6]; NCI-H1299, 50 μM): 1.090 ± 0.022 | OD ([6]; NCI-H1299, 100 μM): 0.754 ± 0.06 | OD ([6]; NCI-H1299, 200 μM): 0.467 ± 0.012 | OD ([7]; 50 μM): 1.188 ± 0.022 | OD ([7]; 100 μM): 0.863 ± 0.054 | OD ([7]; 200 μM): 0.341 ± 0.010 | Inhibition rate (%) ([8]; MG-63, 3.125 μmol/L): 64.05% | Number of migrated cells ([8]; MG-63, 3.125 μmol/L): 129.5 ± 19.9 | Inhibition rate (%) ([8]; MG-63, 6.25 μmol/L): 83.21% | Number of migrated cells ([8]; MG-63, 6.25 μmol/L): 60.5 ± 26.7 | Inhibition rate (%) ([8]; MG-63, 12.5 μmol/L): 90.98% | Number of migrated cells ([8]; MG-63, 12.5 μmol/L): 32.5 ± 6.0 | Inhibition rate (%) ([8]; MG-63, 25 μmol/L): 93.13% | Number of migrated cells ([8]; MG-63, 25 μmol/L): 24.8 ± 9.6 | Inhibition rate (%) ([9]; SKOV3, 12.5 μmol/L): 17.17% | Number of migrated cells ([9]; SKOV3, 12.5 μmol/L): 907.3 ± 46.5 | Inhibition rate (%) ([9]; SKOV3, 25 μmol/L): 52.28% | Number of migrated cells ([9]; SKOV3, 25 μmol/L): 523.8 ± 35.3 | Inhibition rate (%) ([9]; SKOV3, 50 μmol/L): 62.04% | Number of migrated cells ([9]; SKOV3, 50 μmol/L): 415.8 ± 21.7 | Inhibition rate (%) ([10]; 12.5 μmol/L): 66.54% | Number of migrated cells ([10]; 12.5 μmol/L): 110.8 ± 29.3 | Inhibition rate (%) ([10]; 25 μmol/L): 65.33% | Number of migrated cells ([10]; 25 μmol/L): 114.8 ± 27.1 | Inhibition rate (%) ([10]; 50 μmol/L): 64.95% | Number of migrated cells ([10]; 50 μmol/L): 116.0 ± 26.1 | in vivo tumor growth (tumor volume, tumor weight) versus blank control [11]: significantly inhibit the in vivo tumor growth
